Data: patent US8124627B2, “Biphenyl compounds useful as muscarinic receptor antagonists” (Theravance, Inc., priority 2005, dated 2012)
Structures can show the parent of a compound that is named as a salt.

How the values were obtained:
[1] = molecular target: T1, M3 muscarinic receptor subtype (Homo sapiens, UniProt P20309); experiment: Radioligand binding assay ([3H]-NMS displacement, CHO cell membranes); settings: tested in this or a similar assay
T1 construct: expressed in transfected cells; crude membranes prepared in house
Protocol: CHO cell lines stably expressing cloned human hM1, hM2, hM3 and hM4 muscarinic receptor subtypes, respectively, were grown to near confluency in medium consisting of HAM's F-12 supplemented with 10% FBS and […]. The cells were grown in a 5% CO2, 37° C. incubator and lifted with 2 mM EDTA in dPBS. Cells were collected by 5 minute centrifugation at 650×g, and cell pellets were either stored frozen at −80° C. or membranes were prepared immediately. For membrane preparation, cell pellets were resuspended in lysis buffer and homogenized with a Polytron PT-2100 tissue disrupter (Kinematica AG; 20 seconds×2 bursts). Crude membranes were centrifuged at 40,000×g for 15 minutes at 4° C. […] The protein concentration of the membrane suspension was determined by the method described in Lowry, O. et al., […] 193:265 (1951). […]
Radioligand binding assays were performed in 96-well microtiter plates in a total assay volume of 100 μL. […] Filter plates were rinsed three times with wash buffer (10 mM HEPES) to remove unbound radioactivity. […] The plates were then counted in a PerkinElmer Topcount liquid scintillation counter (PerkinElmer Inc., Wellesley, Mass.). Binding data were analyzed by nonlinear regression analysis with the GraphPad Prism Software package (GraphPad Software, Inc., San Diego, Calif.) using the one-site competition model. […]

[2] = Dynamic moisture sorption (DMS) assessment; assay type: physicochemical; settings: exposed to up to 90% RH
Protocol: A dynamic moisture sorption (DMS) assessment (also known as a moisture sorption-desorption profile) was performed for samples of the crystalline diacetate salt using a VTI atmospheric microbalance, SGA-100 system (VTI Corp., Hialeah, Fla. 33016). A sample size of approximately 10 mg was used and the humidity was set at the ambient value at the start of the analysis. A typical DMS analysis consisted of three scans: ambient to 2% relative humidity (RH), 2% RH to 90% RH, 90% RH to 5% RH at a scan rate of 5% RH/step. The mass was measured every two minutes and the RH was changed to the next value (+/−5% RH) when the mass of the sample was stable to within 0.01% for 5 consecutive points.

[3] = Differential scanning calorimetry (DSC), thermal decomposition; assay type: physicochemical; settings: heating ramp 10° C./min
Protocol: DSC was performed using a TA Instruments Model Q-10 module with a Thermal Analyst controller, and data were collected and analyzed using TA Instruments Thermal Solutions software. A sample of about 1 mg of the crystalline diacetate salt was accurately weighed into an aluminum pan with lid, and evaluated using a linear heating ramp of 10° C./min from ambient temperature to approximately 300° C. The DSC cell was purged with dry nitrogen during use. A representative DSC trace for this salt is shown in FIG. 2 and depicts one transition at about 114° C., no thermal decomposition below about 160° C., and maximum endothermic heat flow at about 112° C.

T1 sequence (P20309 whole entry): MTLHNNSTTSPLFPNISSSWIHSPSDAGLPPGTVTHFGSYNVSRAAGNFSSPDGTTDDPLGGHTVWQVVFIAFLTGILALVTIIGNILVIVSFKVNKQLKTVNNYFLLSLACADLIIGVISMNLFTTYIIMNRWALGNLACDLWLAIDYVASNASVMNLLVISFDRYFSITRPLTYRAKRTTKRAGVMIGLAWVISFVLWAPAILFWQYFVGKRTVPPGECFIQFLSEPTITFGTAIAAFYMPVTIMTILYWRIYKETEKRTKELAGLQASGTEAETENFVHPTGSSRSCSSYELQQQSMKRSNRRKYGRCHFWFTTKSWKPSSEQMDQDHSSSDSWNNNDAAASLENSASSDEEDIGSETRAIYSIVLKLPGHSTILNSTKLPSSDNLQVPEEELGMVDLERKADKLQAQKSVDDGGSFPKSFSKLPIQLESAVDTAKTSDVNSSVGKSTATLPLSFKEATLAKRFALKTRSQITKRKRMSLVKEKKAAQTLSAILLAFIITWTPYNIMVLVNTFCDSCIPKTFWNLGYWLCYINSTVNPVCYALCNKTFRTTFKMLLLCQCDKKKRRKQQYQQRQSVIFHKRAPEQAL

Compound	Ki [1] [nM]	weight gain in DMS (reversible sorption/desorption profile) [2]	no thermal decomposition below (DSC trace) [3] [°C]
CN(CCN1CCC(OC(=O)Nc2ccccc2-c2ccccc2)CC1)C(=O)c1cccc(C(=O)NCCNCc2ccc(O)cc2)c1 [Example 1, Biphenyl-2-ylcarbamic Acid 1-[2-({3-[2-(4-Hydroxybenzylamino)ethylcarbamoyl]benzoyl}methylamino)ethyl]piperidin-4-yl Ester]	< 5	–	–
CN(CCN1CCC(OC(=O)Nc2ccccc2-c2ccccc2)CC1)C(=O)c1cccc(C(=O)NCCNCc2ccc(O)cc2)c1 [crystalline diacetate salt, biphenyl-2-ylcarbamic acid 1-[2-({3-[2-(4-hydroxybenzylamino)ethylcarbamoyl]benzoyl}methylamino)ethyl]piperidin-4-yl ester]	–	less than 18%	≥ 160
CN(CCN1CCC(OC(=O)Nc2ccccc2-c2ccccc2)CC1)C(=O)c1cccc(C(=O)NCCNCc2ccc(O)cc2)c1 [crystalline dipropionate salt, Biphenyl-2-ylcarbamic Acid 1-[2-({3-[2-(4-Hydroxybenzylamino)ethylcarbamoyl]benzoyl}methylamino)ethyl]piperidin-4-yl Ester]	–	less than 11%	≥ 150
CN(CCN1CCC(OC(=O)Nc2ccccc2-c2ccccc2)CC1)C(=O)c1cccc(C(=O)NCCNCc2ccc(O)cc2)c1 [crystalline monooxalate salt, Biphenyl-2-ylcarbamic Acid 1-[2-({3-[2-(4-Hydroxybenzylamino)ethylcarbamoyl]benzoyl}methylamino)ethyl]piperidin-4-yl Ester]	–	less than 14%	≥ 150
